From US20170127674A1, “MICROPROPAGATION OF ALEXANDRIAN LAUREL (DANAE RACEMOSA L)” (North Carolina A&T State University, priority 2012, published 2017) come the findings set out here.

What all share (assay type): in vivo, Danae racemosa L.
Data set [1] relates to Alexandrian laurel seedlings. Put plainly: Culture of germinated seeds in TDZ-supplemented Woody Plant Medium. The protocol: (§1) All cultures described herein were transferred onto fresh media every 4 weeks and incubated in a plant tissue culture grade growth chamber under a 16-h photoperiod and a photo flux density of 37.6±4.8 μmol s^−1m^−2 light per day provided by cool white fluorescent tubes at 23±0.1° C., unless otherwise noted.
At 10 weeks, a group of germinated seeds from Example 1 was removed from agar medium containing GA3 and transferred to a supplemented WPM culture further comprising TDZ (at 1.0, 2.0, or 3.0 mg/L, respectively 4.54, 9.08, or 13.62 μM).

The test system of data set [2] is Alexandrian laurel seed. Put plainly: In vitro germination of seeds in agar medium containing GA3. The protocol: Seeds were purchased (Gethsemane Garden and Landscape Services, Inc., Greensboro, N.C.) and disinfected in a 20% bleach solution plus 20 drops Tween-20 per liter for 20 minutes and then rinsed immediately 3 times with sterile purified water.
The disinfected seeds were subsequently transferred to test tubes containing agar medium and 10 ppm GA3. The medium pH was adjusted to 5.8 with 1N KOH or 1 N HCl. The culture medium was sterilized by autoclaving at 121° C. (106 kPa) for 20 minutes.
as §1
The seeds were prepared according to Materials and Methods above.
The micropropagated plantlets were then potted in soil and transferred to a greenhouse.

The subject of data set [3] is Alexandrian laurel seedlings. Put plainly: Culture of germinated seeds in BA-supplemented Woody Plant Medium. The protocol: All cultures described herein were transferred onto fresh media every 4 weeks and incubated in a plant tissue culture grade growth chamber under a 16-h photoperiod and a photo flux density of 37.6±4.8 μmol s^−1m^−2 light per day provided by cool white fluorescent tubes at 23±0.1° C., unless otherwise noted. At 10 weeks, a group of germinated seeds from Example 1 was removed from agar medium containing GA3 and transferred to a supplemented WPM culture further comprising BA (at 1.0, 2.0, or 3.0 mg/L, respectively 4.44, 8.88, or 13.32 μM).

Turning to `O=C(Nc1ccccc1)Nc1cnns1` [TDZ, [1-phenyl-3-(1,2,3-thidiazol-5-yl)urea]], in data set [1] (after 50 days of treatment in TDZ supplemented WPM), the “appearance of root growth points” value is recorded as “root growth points began to turn brown”. Also, the shoots per seed in data set [1] (early growth after the initial seed germination in the presence of TDZ) is reported as 5-10 shoots per seed. Further, the shoot formation result in data set [1] (supplemented WPM with TDZ at 1.0, 2.0 or 3.0 mg/L, about 50 days (FIG. 3)) is on record as “multiple shoots from each seed”.
Consider `C=C1C[C@]23C[C@@]1(O)CC[C@H]2[C@@]12C=C[C@H](O)[C@@](C)(C(=O)O1)[C@H]2[C@@H]3C(=O)O` [GA3, gibberellic acid], for which the “root and shoot growth of germinated seeds” value in data set [2] (agar medium containing GA3, at 10 weeks (FIG. 1)) was “a lot of root growth and little shoot growth”. For the same molecule, in data set [2] (agar medium with 10 ppm GA3, about 10 weeks), the seed germination result is on record as “a majority of the seeds had germinated”.
Consider `c1ccc(CNc2ncnc3nc[nH]c23)cc1` [BA, 6-benzylamino purine], for which, in data set [3] (early growth after the initial seed germination in the presence of BA), the seedling development entry was “balanced seedling development by simultaneously promoting shoot growth and slowing down root growth”. The “shoot and root growth of young seedlings compared to Example 1A” value in data set [3] (supplemented WPM with BA at 1.0, 2.0 or 3.0 mg/L, about 4 weeks (FIG. 2)) is “more balanced shoot and root growth”.
